Reference: US9376432B2, “Use of VEGFR-3 inhibitors for treating hepatocellular carcinoma” (Sanofi, priority 2012, dated 2016)

Columns and labels:
[1] = system: DEN-induced hepatocarcinoma; experiment: DEN chemical-induced hepatocarcinoma in mice; assay type: in vivo, male C3H mice
Description: DEN (N-diethynitrosamine)-induced mouse model has been validated as a representative model for human HCC Wu et al. J. Cancer Res. Clin. Oncol. (2009) 135. 969-981; Chuang et al. Carcinogenesis (2000) 21; 331-335).
Tumor initiation was achieved by a single intra peritoneal injection of 10 mg/kg of N-diethylnitrosamine (DEN) in male C3H mice (Charles river laboratories France) at the age of 5 weeks.
Mice developed tumors in the liver from the 7th month post DEN administration but the incidence reached 100% at the 12th month. The compound of Example 1 was daily administrated P.O. (orally) after suspension in methyl cellulose tween, between the 10th and 12th month after DEN administration.
The body weight was evaluated each week during treatment and on the 12th months. Mice were killed by overdose of sodium pentobarbital, and livers were removed and weighted. The number of tumors per liver was counted and the tumor volume was measured with calipers. The tumor volume V was calculated using formula V=0.52×a^2×b, where “a” represents the smallest tumor diameter and “b” the largest tumor diameter.

[2] = system: HepG2 cell line orthotopic xenograft; experiment: HepG2 cell line orthotopic xenograft model (murine hepatocarcinoma xenograft); assay type: in vivo, SCID mice; details: 100 mg/kg once a day
Description: The in vivo anti-tumor efficacy of the compound of Example 1 in HepG2 cell line orthotopic xenograft model was evaluated. The HepG2 cells were injected into liver of SCID mice (obtained from ATCC) and mice were randomized into 2 groups 14 days post cell injection: a control group treated with vehicle and the compound of Example 1-treated group. Treatment was performed once a day at 100 mg/kg in methyl cellulose tween as vehicle.
The tumor size was measured by weighting the left lobe with the tumor at day 28. […] Normal liver lobe was also measured and deduced from the lobe of tumor bearing mice. […] (See FIG. 1).

VEGFR-1 = VEGFR-1 (Homo sapiens, UniProt P17948); details: same assays as VEGFR-3; disclosed in the '145 application; cited from earlier work
VEGFR-3 = VEGFR-3 (Homo sapiens, UniProt P35916); details: disclosed in the '145 application; read-out: IC50, inhibition of recombinant VEGFR-3 TK activity and autophosphorylation in HEK cells; cited from earlier work
[3] = system: 85 different kinases and 107 receptors, enzymes and ion channels; experiment: selectivity versus other kinases, receptors, enzymes and ion channels
primary lymphatic cells = experiment: VEGFC- and VEGFD-induced proliferation of primary lymphatic cells; assay type: cell-based; details: read-out: IC50, inhibition of VEGFC- and VEGFD-induced proliferation
hepatocellular carcinoma = details: HCC patients; literature; cited from earlier work
[4] = daily P.O. between 10th and 12th month after DEN, vs vehicle group
[5] = late treatment, 10th to 12th month after DEN, compared to same parameters at the 10th month

Chain of VEGFR-3 (P35916 25-1363): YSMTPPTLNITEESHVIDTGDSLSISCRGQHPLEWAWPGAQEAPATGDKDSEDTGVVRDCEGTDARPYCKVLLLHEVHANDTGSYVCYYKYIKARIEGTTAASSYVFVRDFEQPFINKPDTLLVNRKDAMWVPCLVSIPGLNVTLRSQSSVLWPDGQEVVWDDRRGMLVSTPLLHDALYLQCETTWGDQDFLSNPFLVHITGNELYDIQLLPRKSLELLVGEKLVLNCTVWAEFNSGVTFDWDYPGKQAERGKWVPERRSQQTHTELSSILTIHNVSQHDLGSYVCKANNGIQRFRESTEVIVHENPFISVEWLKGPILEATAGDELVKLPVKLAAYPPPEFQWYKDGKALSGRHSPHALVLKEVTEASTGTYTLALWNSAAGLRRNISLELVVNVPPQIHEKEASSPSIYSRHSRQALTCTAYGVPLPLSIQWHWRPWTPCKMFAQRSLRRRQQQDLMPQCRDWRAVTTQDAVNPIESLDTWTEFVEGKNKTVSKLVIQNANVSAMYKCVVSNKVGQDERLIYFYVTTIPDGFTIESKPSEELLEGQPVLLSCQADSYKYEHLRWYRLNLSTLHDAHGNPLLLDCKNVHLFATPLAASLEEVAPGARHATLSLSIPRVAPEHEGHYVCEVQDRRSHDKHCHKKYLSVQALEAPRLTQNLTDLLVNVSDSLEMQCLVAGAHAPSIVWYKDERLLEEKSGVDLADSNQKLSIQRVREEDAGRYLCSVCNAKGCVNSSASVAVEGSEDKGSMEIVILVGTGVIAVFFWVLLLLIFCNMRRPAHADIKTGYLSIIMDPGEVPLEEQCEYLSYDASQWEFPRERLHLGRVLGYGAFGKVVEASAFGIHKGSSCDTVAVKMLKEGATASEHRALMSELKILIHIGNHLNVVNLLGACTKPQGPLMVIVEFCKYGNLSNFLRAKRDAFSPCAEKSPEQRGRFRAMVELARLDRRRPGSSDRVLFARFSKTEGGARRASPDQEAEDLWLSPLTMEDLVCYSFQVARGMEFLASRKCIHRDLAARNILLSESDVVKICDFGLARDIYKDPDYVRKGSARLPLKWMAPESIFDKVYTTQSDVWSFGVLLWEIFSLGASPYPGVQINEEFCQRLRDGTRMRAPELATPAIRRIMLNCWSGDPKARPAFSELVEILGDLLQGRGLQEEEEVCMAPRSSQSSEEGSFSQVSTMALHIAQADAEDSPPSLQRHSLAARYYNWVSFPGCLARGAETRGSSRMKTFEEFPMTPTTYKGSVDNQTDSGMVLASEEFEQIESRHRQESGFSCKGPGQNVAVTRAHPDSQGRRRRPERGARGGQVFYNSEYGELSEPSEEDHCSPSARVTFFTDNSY
Chain of VEGFR-1 (P17948 27-1338): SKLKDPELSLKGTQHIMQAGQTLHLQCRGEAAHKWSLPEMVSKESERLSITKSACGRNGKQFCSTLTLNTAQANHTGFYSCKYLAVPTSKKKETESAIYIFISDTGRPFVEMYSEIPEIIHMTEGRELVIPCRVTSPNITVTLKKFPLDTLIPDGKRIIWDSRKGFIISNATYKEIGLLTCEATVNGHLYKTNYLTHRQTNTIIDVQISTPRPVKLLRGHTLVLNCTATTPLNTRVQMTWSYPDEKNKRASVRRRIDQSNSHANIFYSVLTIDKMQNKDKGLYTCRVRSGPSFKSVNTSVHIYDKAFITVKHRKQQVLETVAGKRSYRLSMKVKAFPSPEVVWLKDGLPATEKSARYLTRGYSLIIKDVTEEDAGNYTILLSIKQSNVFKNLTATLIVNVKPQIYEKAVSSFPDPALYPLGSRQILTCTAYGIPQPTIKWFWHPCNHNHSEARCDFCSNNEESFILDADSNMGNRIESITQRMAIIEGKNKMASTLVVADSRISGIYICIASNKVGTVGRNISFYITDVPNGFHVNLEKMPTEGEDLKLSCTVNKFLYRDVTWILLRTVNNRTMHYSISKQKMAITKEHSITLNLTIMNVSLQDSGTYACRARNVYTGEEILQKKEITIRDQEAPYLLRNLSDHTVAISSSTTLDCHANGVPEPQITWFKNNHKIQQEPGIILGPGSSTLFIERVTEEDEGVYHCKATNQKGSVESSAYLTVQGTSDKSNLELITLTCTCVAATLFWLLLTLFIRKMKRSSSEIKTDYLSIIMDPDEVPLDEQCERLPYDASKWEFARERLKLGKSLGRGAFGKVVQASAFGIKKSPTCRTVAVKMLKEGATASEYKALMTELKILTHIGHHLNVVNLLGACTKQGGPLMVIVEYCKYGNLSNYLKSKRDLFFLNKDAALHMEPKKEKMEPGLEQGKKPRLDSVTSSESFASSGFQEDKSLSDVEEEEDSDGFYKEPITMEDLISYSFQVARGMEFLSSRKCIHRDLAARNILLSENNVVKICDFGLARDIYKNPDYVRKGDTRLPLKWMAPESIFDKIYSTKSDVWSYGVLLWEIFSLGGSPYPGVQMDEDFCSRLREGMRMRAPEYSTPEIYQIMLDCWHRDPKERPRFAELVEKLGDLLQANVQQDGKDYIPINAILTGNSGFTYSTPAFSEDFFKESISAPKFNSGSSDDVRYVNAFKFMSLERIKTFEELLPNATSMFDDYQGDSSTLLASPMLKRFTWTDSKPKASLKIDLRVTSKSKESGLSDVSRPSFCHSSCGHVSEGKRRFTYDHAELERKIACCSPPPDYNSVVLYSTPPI

Structure (SMILES) | total liver weight ([1]; daily P.O. between 10th and 12th month after DEN) | reduction of number of tumors/liver [1, 4] | reduction of total tumor volume [1, 4] | formation of new loci compared to the 10th month [1, 5] | tumor development compared to the 10th month [1, 5] | decrease of mean weight of the liver lobe bearing the tumor ([2]; from 14 days post cell injection, Day 28 post cell injection, vs vehicle, p=0.001) | reduction of tumor weight (normal liver lobe weight deduced) ([2]; Day 28, normal liver lobe deduced from lobe of tumor bearing mice) | IC50 (VEGFR-1) | IC50 (VEGFR-3) | selectivity for VEGFR-3 compared to other tested kinases, receptors, enzymes and ion channels [3] | IC50 (primary lymphatic cells) | OS (overall survival) gain over placebo (hepatocellular carcinoma)
CCn1c(N)c(-c2ncc[nH]2)c(=O)c2ccc(C#C[C@@](C)(O)COC)nc21 [Example 1, 2-Amino-1-ethyl-7-((3R)-3-hydroxy-4-methoxy-3-methyl-but-1-ynyl)-3-(1H-imidazol-2-yl)-1H-[1,8]-naphthyridin-4-one] | reduced and almost normalized | 50% | 85% | prevented the formation of new loci | completely blocked tumor development | 34% | 62% | > 1000 nM | ~25 nM | highly selective for VEGFR-3 | 10 to 15 nM | 
CCn1c(N)c(-c2ncc[nH]2)c(=O)c2ccc(C#C[C@@](C)(O)CO)nc21 [Example 2, 2-Amino-7-((3R)3,4-dihydroxy-3-methyl-but-1-ynyl)-1-ethyl-3-(1H-imidazol-2-yl)-1,8-naphthyridin-4(1H)-one] |  |  |  |  |  |  |  |  | ~47 nM |  |  | 
CNC(=O)c1cc(Oc2ccc(NC(=O)Nc3ccc(Cl)c(C(F)(F)F)c3)cc2)ccn1 [Sorafenib] |  |  |  |  |  |  |  |  |  |  |  | 2-3 months
